Assay results taken from patent US6620793B2, “Therapeutic use of ganglioside GM1 in the treatment of spinal cord injury” (Fidia Farmaceutici S.p.A., priority 1991, dated 2003).
Several values for one entry are separate records, joined by “and”; a condition that tells them apart may be missing. Equal entries are not always repeated.

Key:
[1] = test system: patients with spinal cord injury; assay: Randomized placebo-controlled double-blind spinal cord injury GM1 trial: Frankel grade; type: in vivo, humans
Excerpt: The first clinical scale used, that is the Frankel classification system, is extremely important because it provides a very relevant clinical index of neurological improvement of the patients.
More precisely, the Frankel classification system separates neurologic disability into five ordinal grades, according to the type and completeness of neurologic function remaining below the level of the spinal-cord injury, as follows: grad A, complete neurclogic injury; grade B, only sensation preserved; grade C, nonfunctional motor ability preserved; grade D, functional motor ability preserved; and grade E, normal motor function. The letters designating each grade were used by Frankel in his original description of this scale.

[2] = Solubility of purified GM1 sodium salt; type: physicochemical
Excerpt: The compound obtained after this purification has the following chemical characteristics and specifications:
Soluble in water, methanol-water and methanol-chloroform.

[3] = test system: patients with spinal cord injury; assay: Randomized placebo-controlled double-blind spinal cord injury GM1 trial: ASIA motor score
Excerpt: This study was designed as a pilot study to test whether the neurologic recovery in humans after a spinal-cord injury could be altered by adding monosialbtetrahexosylganglioside (GM1) ganglioside beyond the routine medical and surgical care with which these trauma patients are initially treated.
A prospective, randomized, placebo-controlled, double-blinded spinal cord injury GM1 ganglioside drug trial was completed. Of the 37 patients, 34 patients (23 cervical and 11 thoracic injuries) who were randomly assigned to a treatment group and who followed the test drug protocol and completed the one year follow-up period, 16 patients were included in the GM1 group and 18 were in the placebo group.
The first dose of study drug was administered within 72 hours of the injury and then 17 to 29 additional 5 ml daily injections of 100 mg GM1 or placebo were given. The treatment (100 mg of GM1 sodium salt or placebo) was administered duly by the intravenous route for a total of 18-32 doses, with the first dose taken within 72 hours of the injury.
The complete composition of the GM1 ganglioside used in the study (Sygen, Fidia, Abano Terme, Italy) is 100 mg of GM1 sodium salt, 12.7 mM; 1.25 mg of sodium dihydrogen phosphate dihydrate, 1.6 mM; 15.0 mg of disodium hydrogen phosphate dodecahydrate, 8.4 mM; 40.0 mg of sodium chloride, 137.9 nM; and a quantity of water sufficient to yield an isotonic solution with a total volume of 5 ml for injection. The placebo vials were identical in appearance and composition, except that the GM1 was absent. Most of the test drug was administered by injection through an intravenous heparin lock. Some of the first few injections were given by an intravenous catheter, and occasionally, when the heparin lock was nonfunctional, a single direct-puncture intravenous injection was used.
The severity of spinal-cord injury and its subsequent recovery were quantified by serial measurement with both the Frankel scale and the American Spinal Injury Association (ASIA) motor score. Each measurement was made at the time of the first contact in the emergency room, at entry into the study, then twice per week for the first 4 weeks and after 2, 3, 6 and 12 months.
The second clinical scale used, that is the ASIA motor score, provides a quantifiable index of nerve-muscle functionality. More exactly, this scale has a range of 0 (complete quadriplegia) to 100 (normal motor function). Five key muscles in each extremity (the biceps, wrist extensors, triceps, flexor profundus, and hand intrinsics in the upper extremity, and the iliopsoas, quadriceps, tibialis anterior, extensor hallucis longus, and gastrocnemius in the lower extremity) are assessed on a scale for strength from 0 to 5 points in which 0 (absent) denotes total paralysis, 1 (trace) palpable or visible penetration, 2(poor) active movement through a range of motion in which gravity is not involved, 3 (fair) active movement through a range of motion against gravity, 4 (good) active movement through a range of motion against resistance, and 5 normal. The ASIA motor score is the sum of the scores for muscle strength in these 20 motor groups.
Furthermore, to better analyze the GM1 effect on muscular functionality, the 20 individual muscle groups in each patient were subdivided into three categories at entry: those initially paralyzed (a motor score of 0), those initially paretic (a motor score of 1 through 4), and those functioning normally (a motor score of 5).

Structure (SMILES): CCCCCCCCCCCCCC=CC(O)C(COC1OC(CO)C(OC2OC(CO)C(OC3OC(CO)C(O)C(OC4OC(CO)C(O)C(O)C4O)C3NC(C)=O)C(OC3(C(=O)[O-])CC(O)C(NC(C)=O)C(C(O)C(O)CO)O3)C2O)C(O)C1O)NC(=O)CCCCCCCCCCCCCCCCC.[Na+] (stereo not drawn) [GM1, Monosialotetrahexosylganglioside, sodium salt]
- Patients improved by two or more Frankel grades who were in the GM1 group ([1]; after one year, 100 mg GM1 i.v. daily, 18-32 doses, 8 of 34 patients improved overall): seven of eight
- Improvement with respect to Frankel grade versus placebo ([1]; entry to one year, P=0.034 Cochran-Mantel-Haenszel chi-square test): improved more than the placebo-treated patients
- Patients improved by two or more Frankel grades among those who had room to improve (number) ([1]; one year, placebo 1 of 14, P=0.033 Fisher's exact test, two-tailed): 7 of 14
- Patients improved by two or more Frankel grades among those who had room to improve (percent) ([1]; one year, placebo 7.1 percent, P=0.033 Fisher's exact test): 50%
- Solubility ([2]; in methanol, acetone, chloroform, ether and hexane): Virtually insoluble
- Solubility ([2]; in water, methanol-water and methanol-chloroform): Soluble
- Difference in improvement in ASIA motor score between groups, unadjusted ([3]; GM1 versus placebo, one year, mean ± SD, n=34, sodium salt): 15.3 and 15.3 ± 25.6
- Improvement in mean ASIA motor score ([3]; all patients, entry to one-year follow-up, mean ± SD, n=16): 36.9 ± 28.2
- Mean ASIA motor score at follow-up ([3]; all patients, one-year follow-up, mean ± SD, n=16): 62.8 ± 26.8
- Mean ASIA motor score at entry ([3]; all patients, study entry (baseline), mean ± SD, n=16, sodium salt): 25.9 and 25.9 ± 21.8
- Patients with a greater degree of ASIA motor recovery than any patient assigned to placebo ([3]; entry to one-year follow-up): three
- Patients with motor recoveries of more than 20 points in ASIA motor score (number) ([3]; entry to one-year follow-up, placebo 7 of 18): 11 of 16
- Patients with motor recoveries of more than 20 points in ASIA motor score (percent) ([3]; entry to one-year follow-up, placebo 38.9 percent): 68.8%
- Patients with no recovery in ASIA motor score ([3]; entry to one-year follow-up, placebo six patients): one
- Mean motor recovery in ASIA motor score ([3]; entry to score after one year, 95 percent CI 21.9 to 51.9): 36.9 points
- Muscle groups paralyzed at entry that regained useful-to-normal motor function (percent) ([3]; motor score 0 at entry to 3 to 5 after one year, placebo 25.3 percent): 51.7%
- Muscle groups paralyzed at entry that regained useful-to-normal motor function (number) ([3]; motor score 0 at entry to 3 to 5 after one year, placebo 49 of 194): 107 of 207
- Muscle groups paralyzed at entry that remained paralyzed (percent) ([3]; motor score 0 at entry, after one year, placebo 65.5 percent): 30.9%
- Muscle groups paralyzed at entry that remained paralyzed (number) ([3]; motor score 0 at entry, after one year, placebo 127 of 194): 64 of 207
- Patients with at least one muscle group paralyzed at entry that improved to a motor score of 3 or more (number) ([3]; one-year follow-up, post hoc, placebo 8 of 18, P=0.039 Fisher's exact test): 13 of 16
- Patients with at least one muscle group paralyzed at entry that improved to a motor score of 3 or more (percent) ([3]; one-year follow-up, post hoc, placebo 44.4 percent, P=0.039 Fisher's exact test): 81.3%
